Values quoted from earlier work in patent US9314524B2, “Topical formulations of Flucytosine” (priority 2007, dated 2016).

What was measured:
[1] = system: 227 clinical yeast isolates; details: for cross-resistance in fluconazole/itraconazole resistant C. albicans isolates: polyene antibiotics
C. glabrata = details: 600-mg day for 2 to 3 weeks
C. albicans = details: yeasts from 104 patients with vulvovaginal candidiasis
Candida albicans = details: 342 Candida albicans strains
Candida glabrata = details: 68 Candida glabrata strains
Candida parapsilosis = details: 65 Candida parapsilosis strains
[2] = human, in vivo
Candida tropicalis = details: 70 Candida tropicalis strains
C. tropicalis = details: 200-mg for 14 days, second line, 3 patients treated

In the case of C[C@@H]1[C@H](O)[C@@H](C)/C=C/C=C/C=C/C=C/C=C/C=C/C=C/[C@H](O[C@@H]2O[C@H](C)[C@@H](O)[C@H](N)[C@@H]2O)C[C@@H]2O[C@](O)(C[C@@H](O)C[C@@H](O)[C@H](O)CC[C@@H](O)C[C@@H](O)CC(=O)O[C@H]1C)C[C@H](O)[C@H]2C(=O)O [amphotericin B], the “cross-resistance in fluconazole/itraconazole resistant C. albicans isolates” value [1] is listed as “no cross-resistance”.

In the case of OB(O)O [boric acid], the “clinical and mycological success” value (C. glabrata) is given as 64% and the “clinical and mycological success, symptomatic women” value (C. glabrata) is given as 47 of 73.

For OC(Cn1cncn1)(Cn1cncn1)c1ccc(F)cc1F [fluconazole], the “resistant C. albicans isolated, share of cases” value (C. albicans) is given as 13.46%, the yeast strains resistant ([1]; 227 vaginal clinical yeast isolates) is given as “thirteen” and the isolates showing resistance (Candida albicans) is given as 7.6%. The isolates demonstrating resistance (Candida glabrata) was 10.3% and the isolates demonstrating resistance (Candida parapsilosis) was 4.6%.

In the case of Nc1nc(=O)[nH]cc1F [flucytosine, 4-amino-5-fluoropyrimidin-2(1H)-one], the “plasma level that led to bone marrow depression and hepatotoxicity” value [2] is listed as “greater than 100 mg/L”.

For CC(=O)N1CCN(c2ccc(OCC3COC(Cn4ccnc4)(c4ccc(Cl)cc4Cl)O3)cc2)CC1 (stereo not drawn) [ketoconazole], the isolates resistant (Candida tropicalis) is listed as 2.9% and the “patients in whom the infection recurred” value (C. tropicalis) is listed as “three”.

In the case of C[C@@H]1[C@H](O)[C@@H](C)/C=C/C=C/CC/C=C/C=C/C=C/C=C/C(O[C@H]2O[C@H](C)[C@@H](O)[C@H](N)[C@@H]2O)CC2O[C@](O)(CC(O)C(O)CCC(O)CC(O)CC(O)CC(=O)O[C@H]1C)CC(O)C2C(=O)O (stereo partly drawn) [nystatin], the “cross-resistance in fluconazole/itraconazole resistant C. albicans isolates” value [1] is listed as “no cross-resistance”.
